Test results as given in article PMC3223731, “Environment sensing and response mediated by ABC transporters” (BMC Genomics, 2011).

How the values were obtained:
Format in all cases: binding
RPA3810 = target: T1, RPA3810 (Rhodopseudomonas palustris, UniProt Q6N384); test: fluorescence thermal shift (SYPRO orange); conditions: 100x ligand over protein (5 or 10 µM protein); 100 mM HEPES, 150 mM NaCl, pH 7.5
T1 construct: gene TX73_019730; mature form, signal peptide removed; N-terminal 6xHis-TEV tag retained; E. coli
T1 sequence (Q6N384 23-368): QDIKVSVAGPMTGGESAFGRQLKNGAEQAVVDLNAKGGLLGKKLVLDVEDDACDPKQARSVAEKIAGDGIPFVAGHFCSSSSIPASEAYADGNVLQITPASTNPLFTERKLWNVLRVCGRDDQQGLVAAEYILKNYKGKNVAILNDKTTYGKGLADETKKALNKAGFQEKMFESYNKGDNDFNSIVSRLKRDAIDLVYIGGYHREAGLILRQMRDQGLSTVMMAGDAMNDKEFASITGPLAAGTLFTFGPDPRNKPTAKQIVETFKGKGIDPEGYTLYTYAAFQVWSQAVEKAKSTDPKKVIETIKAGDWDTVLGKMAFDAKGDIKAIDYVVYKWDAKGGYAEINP

RPA2014 = target: T2, RPA2014 (Rhodopseudomonas palustris, UniProt Q6N890); test: fluorescence thermal shift (SYPRO orange); conditions: 100x ligand over protein (5 or 10 µM protein), 100 mM HEPES, 150 mM NaCl, pH 7.5
T2 construct: gene TX73_010380; mature form, signal peptide removed; N-terminal 6xHis-TEV tag retained; E. coli
T2 sequence (Q6N890 31-371): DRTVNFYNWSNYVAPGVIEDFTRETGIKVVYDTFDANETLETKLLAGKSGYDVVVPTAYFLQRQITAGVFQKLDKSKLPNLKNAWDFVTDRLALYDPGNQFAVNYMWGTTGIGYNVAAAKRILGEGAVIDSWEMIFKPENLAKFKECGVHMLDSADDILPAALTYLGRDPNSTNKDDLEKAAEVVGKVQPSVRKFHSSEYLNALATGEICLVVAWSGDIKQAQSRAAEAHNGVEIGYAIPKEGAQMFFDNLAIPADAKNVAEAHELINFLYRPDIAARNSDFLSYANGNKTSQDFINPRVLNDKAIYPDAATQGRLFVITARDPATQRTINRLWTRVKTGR

RPA0668 (hbaE) = target: T3, RPA0668 (hbaE) (Rhodopseudomonas palustris, UniProt G3XCQ4); test: fluorescence thermal shift (SYPRO orange); conditions: 100x ligand over protein (5 or 10 µM protein); 100 mM HEPES, 150 mM NaCl, pH 7.5
T3 construct: mature form, signal peptide removed; N-terminal 6xHis-TEV tag retained; E. coli
T3 sequence (G3XCQ4 entry or part of it): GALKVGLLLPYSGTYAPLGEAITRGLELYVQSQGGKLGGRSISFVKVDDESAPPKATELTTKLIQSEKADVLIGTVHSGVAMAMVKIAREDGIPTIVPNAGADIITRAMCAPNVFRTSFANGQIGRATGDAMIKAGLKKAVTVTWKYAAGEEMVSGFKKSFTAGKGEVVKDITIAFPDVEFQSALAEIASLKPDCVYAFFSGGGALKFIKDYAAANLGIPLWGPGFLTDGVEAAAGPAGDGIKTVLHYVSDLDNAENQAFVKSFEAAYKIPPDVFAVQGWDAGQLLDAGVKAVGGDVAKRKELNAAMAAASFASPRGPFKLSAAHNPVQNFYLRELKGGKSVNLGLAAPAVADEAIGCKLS

RPA1789 = target: T4, RPA1789 (Rhodopseudomonas palustris, UniProt Q6N8W4); test: fluorescence thermal shift (SYPRO orange); conditions: 100x ligand over protein (5 or 10 µM protein); 100 mM HEPES, 150 mM NaCl, pH 7.5
T4 construct: mature form, signal peptide removed; N-terminal 6xHis-TEV tag retained; E. coli
T4 sequence (Q6N8W4 27-385): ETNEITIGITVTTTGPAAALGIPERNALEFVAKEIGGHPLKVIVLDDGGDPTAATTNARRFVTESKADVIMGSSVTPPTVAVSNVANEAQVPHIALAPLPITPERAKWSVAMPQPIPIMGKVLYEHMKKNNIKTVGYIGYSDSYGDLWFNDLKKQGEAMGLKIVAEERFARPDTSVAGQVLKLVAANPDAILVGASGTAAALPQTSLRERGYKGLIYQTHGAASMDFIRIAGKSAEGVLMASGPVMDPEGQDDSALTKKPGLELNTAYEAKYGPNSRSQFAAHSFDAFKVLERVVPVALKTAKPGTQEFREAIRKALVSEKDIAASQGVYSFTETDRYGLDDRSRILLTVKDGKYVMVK

RPA4780 = target: T5, RPA4780 (Rhodopseudomonas palustris, UniProt Q6N0I2); conditions: 100x ligand over protein (5 or 10 µM protein); 100 mM HEPES, 150 mM NaCl, pH 7.5
T5 construct: gene pstS; mature form, signal peptide removed; N-terminal 6xHis-TEV tag retained; E. coli
T5 sequence (Q6N0I2 22-336): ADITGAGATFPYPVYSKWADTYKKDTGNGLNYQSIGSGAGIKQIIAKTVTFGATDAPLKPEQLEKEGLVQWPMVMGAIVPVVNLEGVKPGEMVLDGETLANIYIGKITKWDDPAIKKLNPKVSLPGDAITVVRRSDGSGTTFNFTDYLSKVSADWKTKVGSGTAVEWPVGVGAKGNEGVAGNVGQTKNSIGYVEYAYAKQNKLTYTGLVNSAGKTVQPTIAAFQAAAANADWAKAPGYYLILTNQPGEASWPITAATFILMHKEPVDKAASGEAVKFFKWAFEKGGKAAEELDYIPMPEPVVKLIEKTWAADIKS

RPA0058 = target: T6, RPA0058 (Rhodopseudomonas palustris, UniProt Q6NDP7); test: fluorescence thermal shift (SYPRO orange); conditions: 100x ligand over protein (5 or 10 µM protein); 100 mM HEPES, 150 mM NaCl, pH 7.5
T6 construct: gene ugpB; mature form, signal peptide removed; N-terminal 6xHis-TEV tag retained; E. coli
T6 sequence (Q6NDP7 24-442): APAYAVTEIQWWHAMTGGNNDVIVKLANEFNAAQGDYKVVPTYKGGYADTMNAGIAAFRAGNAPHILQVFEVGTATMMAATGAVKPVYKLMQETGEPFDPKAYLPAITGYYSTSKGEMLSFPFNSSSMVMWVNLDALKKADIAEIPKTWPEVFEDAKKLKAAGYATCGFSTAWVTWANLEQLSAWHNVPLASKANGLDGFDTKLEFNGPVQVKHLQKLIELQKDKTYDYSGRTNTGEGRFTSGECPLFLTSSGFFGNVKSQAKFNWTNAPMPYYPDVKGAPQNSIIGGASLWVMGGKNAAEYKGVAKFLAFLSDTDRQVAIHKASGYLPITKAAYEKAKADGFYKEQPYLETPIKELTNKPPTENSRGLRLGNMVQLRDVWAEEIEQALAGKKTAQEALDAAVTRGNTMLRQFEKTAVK

RPA4029 = target: T7, RPA4029 (Rhodopseudomonas palustris, UniProt Q6N2M1); test: fluorescence thermal shift (SYPRO orange); conditions: 100x ligand over protein (5 or 10 µM protein); 100 mM HEPES, 150 mM NaCl, pH 7.5
T7 construct: gene TX73_020875; mature form, signal peptide removed; N-terminal 6xHis-TEV tag retained; E. coli
T7 sequence (Q6N2M1 28-392): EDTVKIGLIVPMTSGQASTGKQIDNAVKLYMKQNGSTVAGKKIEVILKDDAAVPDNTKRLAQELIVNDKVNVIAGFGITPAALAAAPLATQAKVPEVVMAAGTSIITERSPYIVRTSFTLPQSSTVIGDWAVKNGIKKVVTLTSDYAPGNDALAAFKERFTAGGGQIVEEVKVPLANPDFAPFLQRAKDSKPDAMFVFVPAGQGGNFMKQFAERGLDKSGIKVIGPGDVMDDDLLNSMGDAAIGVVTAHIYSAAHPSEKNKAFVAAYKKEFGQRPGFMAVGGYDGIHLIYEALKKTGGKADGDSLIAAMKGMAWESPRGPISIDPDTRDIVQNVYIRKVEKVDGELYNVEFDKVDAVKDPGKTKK

RPA0985 = target: T8, RPA0985 (Rhodopseudomonas palustris, UniProt Q6NB45); test: fluorescence thermal shift (SYPRO orange); conditions: 100x ligand over protein (5 or 10 µM protein); 100 mM HEPES, 150 mM NaCl, pH 7.5
T8 construct: mature form, signal peptide removed; N-terminal 6xHis-TEV tag retained; E. coli
T8 sequence (Q6NB45 23-390): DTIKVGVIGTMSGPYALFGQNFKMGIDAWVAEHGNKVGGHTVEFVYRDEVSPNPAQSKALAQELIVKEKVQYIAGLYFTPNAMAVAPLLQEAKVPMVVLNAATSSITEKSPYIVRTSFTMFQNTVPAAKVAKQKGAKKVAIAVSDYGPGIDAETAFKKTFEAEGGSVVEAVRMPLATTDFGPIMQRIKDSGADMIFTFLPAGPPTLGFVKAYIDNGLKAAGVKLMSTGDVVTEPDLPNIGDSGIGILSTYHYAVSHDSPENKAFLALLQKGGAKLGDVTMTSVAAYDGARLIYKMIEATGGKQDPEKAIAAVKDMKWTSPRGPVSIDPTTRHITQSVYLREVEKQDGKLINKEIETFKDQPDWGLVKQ

NCC(=O)O [glycine]
ΔTm (RPA3810): RPA3810, shifted primarily with amino acids with preferences for alanine, glycine and serine

NCCCNCCCCNCCCN [spermine]
ΔTm (RPA2014; low affinity): spermine still binds this protein with low affinity in the FTS assay

O=C(O)c1ccccc1O [salicylic acid]
ΔTm (RPA0668 (hbaE)): closely related derivatives, 4-hydroxybenzoic acid, salicylate, and benzaldehyde

O=C(O)/C=C/c1ccc(O)cc1 [p-coumaric acid]
ΔTm (RPA1789): one protein bound p-coumaric acid, ferulic acid, and cinnamic acid with good affinities

COc1cc(/C=C/C(=O)O)ccc1O [ferulic acid]
ΔTm (RPA1789): one protein bound p-coumaric acid, ferulic acid, and cinnamic acid with good affinities

NCCCCN [putrescine]
ΔTm (RPA2014): indeed shifted with putrescine preferentially over spermine

O=P(O)(O)O [phosphate]
ΔTm (RPA4780): RPA0058 and RPA4780 exhibited specific stabilization by glycerol-3-phosphate and phosphate, respectively

O=P(O)(O)OC[C@H](O)CO [glycerol-3-phosphate]
ΔTm (RPA0058): RPA0058 and RPA4780 exhibited specific stabilization by glycerol-3-phosphate and phosphate, respectively

O=C(O)/C=C/c1ccccc1 [cinnamic acid]
ΔTm (RPA1789): one protein bound p-coumaric acid, ferulic acid, and cinnamic acid with good affinities

O=C(O)c1ccc(O)cc1 [4-hydroxybenzoic acid]
ΔTm (RPA4029): 17 °C
ΔTm (RPA0668 (hbaE)): closely related derivatives, 4-hydroxybenzoic acid, salicylate, and benzaldehyde
ΔTm (RPA0985): 29.5 °C
